Measured values reported in patent publication US9439432B2, “Phenylisoxazoline-based compound having herbicidal activity and use thereof” (MOGHU RESEARCH CENTER LTD, priority 2011, dated 2016).

Tests used:
Type in all cases: in vivo
Rice [1] = assay: Pre-emergence treatment, phytotoxicity to rice; details: 500 g/ha, 4 weeks after spraying, scale 0 to 10 (0: no effects, 10: complete death)
Procedure: (§1) A rectangular plastic pot having a surface area of 300 cm^2 was filled with sandy loam soil and mixed bed soil which were mixed at a ratio of 1:1, and then, barnyardrass (Echinochloa crusgalli), large crabgrass (Digitaria sanguinalis), blackgrass (Alopecurus myosuroides), and annual bluegrass (Poa annua), which are grass weeds, were seeded thereto. In a pot that was prepared as described above, seeds of corn, soybean, cotton, wheat, and rice were seeded. The pots were irrigated, and one day after, chemicals were sprayed thereto. The spraying was performed by using a track sprayer (R&D Sprayer, USA) equipped with a Teejet 8002 (Spraying Systems Co., USA) nozzle, and a spraying amount was adjusted at 300 L/ha. A spraying solution was prepared by dissolving test materials or references in acetone and adding the same amount of 0.2%(v/v) tween 20 aqueous solution thereto. Application rates were 500, 250, 125, and 62.5 g/ha. The pots were placed in a greenhouse in which during day, the temperature was maintained at a temperature of 25 to 30° C., and during night, the temperature was maintained at a temperature of 15 to 25° C., and the pots were periodically irrigated. Four weeks after the spraying the test materials or References, effects and phytotoxicity of the respective weeds and crops were evaluated in a scale of 0 to 10 (0: no effects, 10: complete death), and results thereof are shown in Table 4 below.

Cotton [2] = assay: Post-emergence treatment, phytotoxicity to cotton; details: post-emergence (about 3 leaf stage), 1,000 g/ha, 4 weeks after spraying, scale 0 to 10 (0: no effects, 10: complete death)
Procedure: as §1
(§2) Pots containing crops and weeds were prepared in the same manner as in Example 7, and then, in the second week in which crops and weeds entered into about 3 leaf stage, the test materials and the references were sprayed thereto in the same manner as described above. The rates were 1,000, 500, 250, and 125 g/ha. Four weeks after the spraying of the test materials or the references, herbicidal efficacy and phytotoxicity to the respective weeds and crops were evaluated in a scale of 0 to 10 (0: no effects, 10: complete death).

Wheat [3] = assay: Pre-emergence treatment, phytotoxicity to wheat; details: 500 g/ha, 4 weeks after spraying, scale 0 to 10 (0: no effects, 10: complete death)
Procedure: as §1

Soybean [4] = assay: Post-emergence treatment, phytotoxicity to soybean; details: post-emergence (about 3 leaf stage), 1,000 g/ha, 4 weeks after spraying, scale 0 to 10 (0: no effects, 10: complete death)
Procedure: as §1, §2

Digitaria sanguinalis [5] = assay: Post-emergence treatment, herbicidal efficacy on large crabgrass; details: 4 weeks after spraying, scale 0 to 10
Procedure: as §1, §2

Corn [6] = assay: Pre-emergence treatment, phytotoxicity to corn; details: 500 g/ha, 4 weeks after spraying, scale 0 to 10 (0: no effects, 10: complete death)
Procedure: as §1

Alopecurus myosuroides [7] = assay: Post-emergence treatment, herbicidal efficacy on blackgrass; details: 4 weeks after spraying, scale 0 to 10
Procedure: as §1, §2

Echinochloa crusgalli [8] = assay: Pre-emergence treatment, herbicidal efficacy on barnyardgrass; details: 4 weeks after spraying
Procedure: as §1

Soybean [9] = assay: Pre-emergence treatment, phytotoxicity to soybean; details: 500 g/ha, 4 weeks after spraying, scale 0 to 10 (0: no effects, 10: complete death)
Procedure: as §1

Poa annua [10] = assay: Post-emergence treatment, herbicidal efficacy on annual bluegrass; details: 4 weeks after spraying, scale 0 to 10
Procedure: as §1, §2

Wheat [11] = assay: Post-emergence treatment, phytotoxicity to wheat; details: post-emergence (about 3 leaf stage), 1,000 g/ha, 4 weeks after spraying, scale 0 to 10 (0: no effects, 10: complete death)
Procedure: as §1, §2

Corn [12] = assay: Post-emergence treatment, phytotoxicity to corn; details: post-emergence (about 3 leaf stage), 1,000 g/ha, 4 weeks after spraying, scale 0 to 10 (0: no effects, 10: complete death)
Procedure: as §1, §2

Echinochloa crusgalli [13] = assay: Post-emergence treatment, herbicidal efficacy on barnyardgrass; details: 4 weeks after spraying, scale 0 to 10
Procedure: as §1, §2

Rice [14] = assay: Post-emergence treatment, phytotoxicity to rice; details: post-emergence (about 3 leaf stage), 1,000 g/ha, 4 weeks after spraying, scale 0 to 10 (0: no effects, 10: complete death)
Procedure: as §1, §2

Alopecurus myosuroides [15] = assay: Pre-emergence treatment, herbicidal efficacy on blackgrass; details: 4 weeks after spraying, scale 0 to 10
Procedure: as §1

Digitaria sanguinalis [16] = assay: Pre-emergence treatment, herbicidal efficacy on large crabgrass; details: 4 weeks after spraying, scale 0 to 10
Procedure: as §1

Cotton [17] = assay: Pre-emergence treatment, phytotoxicity to cotton; details: 500 g/ha, 4 weeks after spraying, scale 0 to 10 (0: no effects, 10: complete death)
Procedure: as §1

Poa annua [18] = assay: Pre-emergence treatment, herbicidal efficacy on annual bluegrass; details: 4 weeks after spraying, scale 0 to 10
Procedure: as §1

CC1(COCc2c(F)cccc2Cl)CC(c2ccccc2Cl)=NO1 (stereo not drawn) [Reference B]
Phytotoxicity, Rice (Rice [1]): 0
Phytotoxicity, Cotton (Cotton [2]): 0
Phytotoxicity, Wheat (Wheat [3]): 0
Phytotoxicity, Soybean (Soybean [4]): 2
Herbicidal efficacy, Digitaria sanguinalis (Digitaria sanguinalis [5]; post-emergence, 125 g/ha): 0
Herbicidal efficacy, Digitaria sanguinalis (Digitaria sanguinalis [5]; post-emergence, 250 g/ha): 5
Herbicidal efficacy, Digitaria sanguinalis (Digitaria sanguinalis [5]; post-emergence, 500 g/ha): 6
Herbicidal efficacy, Digitaria sanguinalis (Digitaria sanguinalis [5]; post-emergence, 1,000 g/ha): 8
Phytotoxicity, Corn (Corn [6]): 0
Herbicidal efficacy, Alopecurus myosuroides (Alopecurus myosuroides [7]; post-emergence, 125 g/ha): 0
Herbicidal efficacy, Alopecurus myosuroides (Alopecurus myosuroides [7]; post-emergence, 250 g/ha): 0
Herbicidal efficacy, Alopecurus myosuroides (Alopecurus myosuroides [7]; post-emergence, 500 g/ha): 0
Herbicidal efficacy, Alopecurus myosuroides (Alopecurus myosuroides [7]; post-emergence, 1,000 g/ha): 3
Herbicidal efficacy, Echinochloa crusgalli (Echinochloa crusgalli [8]; 62.5 g/ha, scale 0 to 10): 2
Herbicidal efficacy, Echinochloa crusgalli (Echinochloa crusgalli [8]; 125 g/ha, scale 0 to 10): 5
Herbicidal efficacy, Echinochloa crusgalli (Echinochloa crusgalli [8]; 250 g/ha, scale 0 to 10): 7
Herbicidal efficacy, Echinochloa crusgalli (Echinochloa crusgalli [8]; 500 g/ha, scale 0 to 10 (0: no effects, 10: complete death)): 10
Phytotoxicity, Soybean (Soybean [9]): 0
Herbicidal efficacy, Poa annua (Poa annua [10]; post-emergence, 125 g/ha): 0
Herbicidal efficacy, Poa annua (Poa annua [10]; post-emergence, 250 g/ha): 1
Herbicidal efficacy, Poa annua (Poa annua [10]; post-emergence, 500 g/ha): 4
Herbicidal efficacy, Poa annua (Poa annua [10]; post-emergence, 1,000 g/ha): 6
Phytotoxicity, Wheat (Wheat [11]): 0
Phytotoxicity, Corn (Corn [12]): 0
Herbicidal efficacy, Echinochloa crusgalli (Echinochloa crusgalli [13]; post-emergence, 125 g/ha): 0
Herbicidal efficacy, Echinochloa crusgalli (Echinochloa crusgalli [13]; post-emergence, 250 g/ha): 0
Herbicidal efficacy, Echinochloa crusgalli (Echinochloa crusgalli [13]; post-emergence, 500 g/ha): 1
Herbicidal efficacy, Echinochloa crusgalli (Echinochloa crusgalli [13]; post-emergence, 1,000 g/ha): 7
Phytotoxicity, Rice (Rice [14]): 0
Herbicidal efficacy, Alopecurus myosuroides (Alopecurus myosuroides [15]; 62.5 g/ha): 0
Herbicidal efficacy, Alopecurus myosuroides (Alopecurus myosuroides [15]; 125 g/ha): 0
Herbicidal efficacy, Alopecurus myosuroides (Alopecurus myosuroides [15]; 250 g/ha): 3
Herbicidal efficacy, Alopecurus myosuroides (Alopecurus myosuroides [15]; 500 g/ha): 10
Herbicidal efficacy, Digitaria sanguinalis (Digitaria sanguinalis [16]; 62.5 g/ha): 0
Herbicidal efficacy, Digitaria sanguinalis (Digitaria sanguinalis [16]; 125 g/ha): 4
Herbicidal efficacy, Digitaria sanguinalis (Digitaria sanguinalis [16]; 250 g/ha): 8
Herbicidal efficacy, Digitaria sanguinalis (Digitaria sanguinalis [16]; 500 g/ha): 9
Phytotoxicity, Cotton (Cotton [17]): 0
Herbicidal efficacy, Poa annua (Poa annua [18]; 62.5 g/ha): 2
Herbicidal efficacy, Poa annua (Poa annua [18]; 125 g/ha): 4
Herbicidal efficacy, Poa annua (Poa annua [18]; 250 g/ha): 8
Herbicidal efficacy, Poa annua (Poa annua [18]; 500 g/ha): 10
